Reference: patent publication US11725027B2, “Hypersensitive response elicitor-derived peptides and use thereof” (priority 2016, dated 2023)
Marks after values point to notes of the source that are not given here.

How the values were obtained:
Format in all cases: in vivo
[1] = system: Nicotiana tabacum cultivar xanthi plants; experiment: Hypersensitive Response (HR) induction in tobacco leaves; design: key to HR: Plants are considered HR-positive (“HR+”) if they exhibit wide-spread macroscopic cell death visible to the naked eye, accompanied by wilting and browning of the affected tissue within 48 hours; Plants are considered HR-negative (“HR−”) if they exhibit no discernible wilting or tissue death observable by naked eye; settings: for HR: tobacco leaf infused with 500, 250, 125, 62.5, 31.25 μg/ml peptide solutions, scored over 48 hours; for elicitation of HR, effect of Met to Ala mutations: tobacco
From the text: A property of a peptide to elicit a hypersensitive response, or not, upon infiltration or application of the peptide to plant tissues can be measured by applying the peptide in dry powder form or in solution form to a plant, particularly though not exclusively a plant leaf.
The minimal eliciting sequence derived from was developed based on the sequence of the hrex gene from Xanthomonas campestris pv. pelargonii. A number of truncated and mutated sequences were synthesized and tested for Hypersensitive Response induction (results in Table 4). HR in tobacco was tested as described in Wei, Science 257:85-88 (1992), which is hereby incorporated by reference in its entirety. Briefly, peptides were dissolved at a concentration of 500 μg/ml in aqueous solution. Four serial dilutions were performed with an equal volume of water, yielding peptide samples at 500, 250, 125, 62.5, 31.25 μg/ml peptide solutions. Nicotiana tabacum cultivar xanthi plants were used at 5-7 weeks old (preflowering). Leaves were lightly punctured with a toothpick in a middle leaf panel. Peptide solutions were then infused via needle-less syringe into the wound, filling the panel. Each peptide sample was infused into a leaf of 2 different plants. The leaves were observed and scored over the next 48 hours for withering and browning, lesions typical of programmed cell death. These studies had […] main goals: (1) determine the minimal sequence sufficient for HR elicitation (2) increase the solution stability of the peptides; (3) make disruptive mutations to verify the residues which are most important for HR elicitation; (4) make conservative mutations to identify the degree of specificity for particular amino acids.

[2] = system: tobacco mosaic virus (TMV); experiment: Induction of resistance to tobacco mosaic virus in tobacco; settings: % decline in TMV lesions vs UTC, spray 20 ug/ml; for Effectiveness Covered (%): covered leaf (systemic response); for Effectiveness Uncovered (%): uncovered leaf (local response)
Description: Peptides were tested for the induction of resistance to tobacco mosaic virus (TMV) in tobacco. Briefly, three tobacco plants at 6-8 weeks old were selected per group (samples and controls). The bottom-most leaf of the plant was covered and the plant was sprayed with a solution of water (untreated control—UTC), peptide, or Proact (positive control). The spray was applied until the leaves were fully wetted, indicated by liquid dripping from the leaves. The plants were then allowed to dry and the leaf covering was removed.
Three days post-treatment, the previously-covered leaf and a leaf on the opposite side of the plant were then lightly dusted with diatomaceous earth and 20 ul of a 1.7 ug/ml solution of purified tobacco mosaic virus was applied. The TMV solution was then spread across the leaf surface by lightly rubbing solution and the diatomaceous earth across the surface of the leaves. Two minutes after inoculation, the diatomaceous earth was rinsed off the leaves with water. 3 days after TMV inoculation, the leaves were scored based on the number of TMV lesions observed. The leaf was also scored for signs of the hypersensitive response, including yellowing and wilting of the affected leaves.
Effectiveness described in Table 6 refers to the % decline in TMV lesions on treated vs UTC plants. A reduction of TMV on covered leaves indicates a systemic immune response in the plant while reduction on uncovered leaves indicates a local response. Asterisks indicate that the P-value derived from a T-test was <0.05.

soy = experiment: Drought resistance in soy (greenhouse, spray); settings: soy under cyclic drought
Description: The effectiveness of peptide treatment in reducing drought stress was assessed in soy. 3.5 inch pots were filled with Sunshine #1 soil (SunGro Horticulture), fertilized with a 20-10-20 mixture. The soil was soaked and drained overnight. Seeds (soy, manually inspected to ensure uniform seed size) were planted at a depth of half inch for germination. Plants were grown in a greenhouse under 16 hour light days at >70° F. and 8 hour dark nights at >65° F. Prior to drought conditions, the plants were well-watered.
When the plants reached the growth stage when first trifoliate expanded, plants were culled to achieve a uniform height (abnormally large and small plants were removed). Plants were then randomly assigned to control (spray without peptide) or treatment (spray with peptide) groups and heights were measured. Peptide was made up in a solution of 0.2 ug/ml or 2 ug/ml in distilled water+0.04% Tween-20, and applied as a fine mist from a spray bottle until the solution drips from the leaves. After the peptide solutions were dried, the plants were again randomized in a randomized complete block design. Cyclic drought stress was initiated after the peptide treatment. Plants were subjected to at least three drought cycles of drought stress (3-5 days of withholding water and 1 day irrigated with saturating amount of water) before harvesting.
The drought test phase ended after 2-3 weeks. At that time, the plant height was again measured and the growth rate was calculated as the difference between this and the previously-recorded height. The above-ground part portions of the plants were harvested and weighed to obtain fresh weight. The above-ground portion was also dried in an oven at 70° C. for 72 hours to obtain dry weight. All calculations were compared with matched untreated control plants.

Sequence | HR [1] | also measured
SEEQLEELLAFIAAALQQEE [Peptide P5-57] | + | 
SEEQLELLLAFIAAALQEE [Peptide P5-88] | + | 
SEEQLDLLLAFIAAALQQEE [Peptide P5-87] | - | 
SAGSEQQLDLLLAFIAAALQQ [Peptide P5-3] | + | elicitation of HR, effect of Met to Ala mutations [1]: do not affect the elicitation of HR; Effectiveness Covered (%) [2]: 70* %; Effectiveness Uncovered (%) [2]: 55%
SAGSEQQLDLELMFIMMMLQQ [Peptide P5-37] | - | 
SAGSEQQLDLLLMEIMMMLQQ [Peptide P5-40] | Strong+ | 
SEEELDLLLAFIAAALDD [Peptide P5-13] | - | 
SEEEEELDQLLLAFIAAAL [Peptide P5-24] | - | 
NFGTPDSTVQNPQDASKPNQLDLLLMFIMMMLQQ [Peptide P5-77] | Weak+ | 
SAGSEQQEDELLMFIMMMLQQ [Peptide P5-52] | - | 
SAGSEQQLDLLLMFIEMMLQQ [Peptide P5-42] | Weak+ | 
SEEELDLLLAFIAAALEE [Peptide P5-11] | - | 
SAGSEQQLDLLLAEIALQQ [Peptide P5-64] | - | 
SEEEEELDLLLAFIAAALE [Peptide P5-18] | - | 
SELELLLEFIEEELEE [Peptide P5-20] | - | 
SAGSEQQLDLLEMFIMMMLQQ [Peptide P5-38] | - | 
SAGSEQQLDELLMFIMMMLQQ [Peptide P5-36] | + | 
SEEQLDLLLEFIEEELQQEE [Peptide P5-48] | - | 
SAGSEQQLDLLLAFIAEALQQ [Peptide P5-66] | Weak+ | 
SEEEEELDLLLAFIAAALS [Peptide P5-16] | - | 
SAGSEQQLDLLLMFIMMELQQ [Peptide P5-44] | Weak+ | 
SEEELELLLAFIAAALEEEE [Peptide P5-22] | + | Effectiveness Covered (%) [2]: 62%; Effectiveness Uncovered (%) [2]: 82%
SAGSEQQLELLLAFIAAALQQ [Peptide P5-4] | + | Effectiveness Covered (%) [2]: 98* %; Effectiveness Uncovered (%) [2]: 97* %
SAGSEQQEDLLLAFIAAALQQ [Peptide P5-49] | - | 

Sequence | HR [1] | also measured
SEEEEELDLLLAFIAAALA [Peptide P5-17] | - | 
SEEEQLDLLLMFIMMMLEE [Peptide P5-31] | + | 
NQGISEKQQLDLLLMFIMMMLQQ [Peptide P5-75] | Strong+ | Dry Weight Increase (%) (soy; 0.2 ug/ml): 3.73%; Fresh Weight Increase (%) (soy; 0.2 ug/ml): 8.78** %; Dry Weight Increase (%) (soy; 2.0 ug/ml): 4.37%; Fresh Weight Increase (%) (soy; 2.0 ug/ml): 8.55** %
SAGSEQQLDQLLLAFIAAALQQ [Peptide P5-55] | - | 
AEQGSSQLDLLLMFIMMMLQQ [Peptide P5-74] | + | 
ITPDGQGGGQIGDNPQLDLLLAFIAAALQQ [Peptide P5-80] | Weak+ | 
SEEEQLDLLLMFIMMMLQEE [Peptide P5-33] | + | Dry Weight Increase (%) (soy; 2.0 ug/ml): 5.02** %; Fresh Weight Increase (%) (soy; 2.0 ug/ml): 4.10%
SAGSEQQEDELLAFIAAALQQ [Peptide P5-51] | - | 
SEEELDLLLMFIMMMLEE [Peptide P5-29] | + | 
SAGSEQQLDLLLEFIAAALQQ [Peptide P5-70] | - | 
SAGSEQQLDLLLAFIAAAL [Peptide P5-6] | - | Effectiveness Covered (%) [2]: 36%; Effectiveness Uncovered (%) [2]: 62%
SEEEEELDLLLAFIAAALGG [Peptide P5-14] | Weak+ | 
LDLLLAFIEEELEEEE [Peptide P5-10] | - | 
NFGTPDSTVQNPQDASKPNQLDLLLAFIAAALQQ [Peptide P5-78] | Weak+ | 
SAGSEQQLDLLLMFIMMMEQQ [Peptide P5-45] | - | 
SEEQLDLLLMFIMMMLQQEE [Peptide P5-47] | + | Effectiveness Covered (%) [2]: 78* %; Effectiveness Uncovered (%) [2]: 87* %
SEEQLDQLLLAFIAAALEE [Peptide P5-28] | Weak+ | 
SEEQEEELLAFIAAALQQEE [Peptide P5-58] | - | 
SAGSEQQLDLLLEFIMMMLQQ [Peptide P5-39] | Strong+ | 
SEEEEELDLLLAFIAAAL [Peptide P5-7] | - | Effectiveness Covered (%) [2]: 91* %; Effectiveness Uncovered (%) [2]: 71%
SAGSEQQLDELLAFIALQQ [Peptide P5-62] | - | 
SEEELDQLLLMFIMMMLEE [Peptide P5-30] | + | 
SAGSEQQLDLLLAEIAAALQQ [Peptide P5-69] | - | 
SEEEEELDLLLAFIAAALQ [Peptide P5-15] | - | 

Sequence | HR [1] | also measured
SAGSEQQLDQELLMFIMMMLQQ [Peptide P5-54] | - | 
ITPDGQGGGQIGDNPQLDLLLMFIMMMLQQ [Peptide P5-79] | Strong+ | 
SAGSEQQLDLLLMFIMEMLQQ [Peptide P5-43] | Strong+ | 
SEEQEELLLAFIAAALQQEE [Peptide P5-56] | - | 
SEEEQLDQLLLMFIMMMLQEE [Peptide P5-34] | + | 
SELELLLAFIAAALEEEEE [Peptide P5-19] | + | 
SAGSEQQLDLLLAFIEALQQ [Peptide P5-65] | - | 
SAGSEQQLDELLAFIAAALQQ [Peptide P5-72] | - | 
SEEQLDLLLAFIAAALQEE [Peptide P5-26] | + | 
SEEEQLDQLLLMFIMMMLEE [Peptide P5-32] | + | 
SAGSEQQEDQLLLMFIMMMLQQ [Peptide P5-53] | - | 
SAGSEQQEDLLLAFIALQQ [Peptide P5-61] | - | 
SEEEEELDQLLLAFIAAALQQ [Peptide P5-23] | Weak+ | 
SAGSEQQLDLLLMFIAAALQQ [Peptide P5-2] | + | elicitation of HR, effect of Met to Ala mutations [1]: do not affect the elicitation of HR; Effectiveness Covered (%) [2]: 90* %; Effectiveness Uncovered (%) [2]: 25%
SQAGSEQLDLLLMFIMMMLQQ [Peptide P5-73] | + | 
SAGSEQQLDLLLMFEMMMLQQ [Peptide P5-41] | - | 
SEEEEELDLLLAFIAAALQQ [Peptide P5-8] | Weak+ | Effectiveness Covered (%) [2]: 99* %; Effectiveness Uncovered (%) [2]: 99* %
SAGSEQQLDELLAFIAAALQQ [Peptide P5-50] | Weak+ | 
SAGSEQQLDQLLLMFIMMMLQQ [Peptide P5a] | + | 
SAGSEQQLDLLLAFIEAALQQ [Peptide P5-67] | - | 
SAGSEQQLDLLLEFIALQQ [Peptide P5-63] | - | 
SAGSEQQLDLLLAFIAAELQQ [Peptide P5-68] | - | 
SEEELDLLLAFIEEELEE [Peptide P5-12] | - | 
